From US10857127B2, “Vaginal delivery systems containing selective estrogen receptor modulator (SERM) and uses thereof” (Azure Biotech, Inc., priority 2016, dated 2020) come the findings set out here.

Several values for one entry are separate records, joined by “and”; a condition that tells them apart may be missing. Identical values can stand only once. Counter-ions that a name gives are not always drawn.

Data set [1] in a line: Dissolution studies of Lasofoxifene in organic solvents and surfactants. The following applies: for Dissolution of Lasofoxifene in various organic solvents and surfactants, 2 mg/ml: Lasofoxifene 2 mg/ml in the labelled solvent/surfactant; for Dissolution of Lasofoxifene in various organic solvents and surfactants, 3 mg/ml: Lasofoxifene 3 mg/ml in the labelled solvent/surfactant. Format: physicochemical. Here is the method:
The solubility of Lasofoxifene was investigated by screening various organic solvents and surfactants in increasing concentrations. The term “formulation” may refer to a pharmaceutical composition comprising […] pharmaceutically acceptable excipients.
First, 1 mg of Lasofoxifene was weighed into Eppendorf vessels and 500 μl of organic solvents and surfactants as listed in Table 20 were added. In cases of insufficient dissolution of the API, samples were treated with ultrasound for 30 min and, if necessary, heated to 50° C. while shaking (300 rpm). Afterwards, samples were examined visually regarding drug dissolution. In case of entire dissolution, the experiment was repeated with increasing drug concentrations until maximum dissolution was achieved. In addition, further organic solvents and surfactants were tested.

Assay in data set [2]: as above
Format: physicochemical. The note with it: Lasofoxifene 1 mg/ml in the labelled solvent/surfactant; visual examination.

Data set [3] has as its system vaginal epithelium. Put plainly: Ovariectomized rat dosing frequency study: mucification of vaginal epithelium (PAS staining, 0-4 scale). The following applies: individual animals. Type of data set: in vivo. The source says:
(§1) A total of 96 young, about 6-8 weeks old, female Sprague Dawley rats were used in this pilot study. The rats were randomized by body weight into six (6) per group and sixteen (16) groups. Ninety (N=90) of the animals were ovariectomized (OVX), and six (N=6) of the animals have a sham OVX surgery. One group of six (6) animals were terminated along with the sham-operated group at Day-14 post-OVX surgery. Three groups of eighteen (18) animals were respectively terminated along with the vehicle group at Day-14, Day-17 or Day-21 post-OVX surgery. The dosing regimens, starting on Day 14 post OVX, by inserting a capsule containing the desired Lasofoxifene formulations (e.g., Test Articles F-1-L, F-1-H, F-2-L, F-2-H) into vaginal tract under brief general anesthesia.
(§2) Rats were assigned to treatment groups by randomization in BioBook system (IDBS) based on the body weights. Grouping according to the below table 1. Each rat was dosed with ready to use solution, […] into vaginal tract with a syringe.
(§3) Annotation: Groups 1 (N=6): Day-0 vehicle; dose once at 100 μL on Day-0 at 14-day post OVX, and terminate at Day-14 post OVX. Groups 2 (N=6): Day-3 vehicle; dose once at 100 μL on Day-0 at 14-day post OVX, and terminate at Day-17 post OVX. Groups 3 (N=6): Day-7 vehicle; dose once at 100 μL on Day-0 at 14-day post OVX, and terminate at Day-21 post OVX. Groups 4 (N=6): Day-0 sham: terminate at Day-14 post sham-operation. Groups 5 (N=6): F-1-L; dose once at 0.3 μg/kg (100 μL) on Day-0 at 14-day post OVX, and terminated at Day-3 after dosing. Groups 6 (N=6): F-1-H; dose once at 3.0 μg/kg (100 μL) on Day-0 at 14-day post OVX, and terminated at Day-3 after dosing. Groups 7 (N=6): F-2-L; dose once at 0.3 μg/kg (100 μL) on Day-0 at 14-day post OVX, and terminated at Day-3 after dosing. Groups 8 (N=6): F-2-H; dose once at 3.0 μg/kg (100 μL) on Day-0 at 14-day post OVX, and terminated at Day-3 after dosing. Groups 9 (N=6): F-1-L; dose once at 0.3 μg/kg (100 μL) on Day-0 at 14-day post OVX, and terminated at Day-7 after dosing. Groups 10 (N=6): F-1-H; dose once at 3.0 μg/kg (100 μL) on Day-0 at 14-day post OVX, and terminated at Day-7 after dosing. Groups 11 (N=6): F-2-L; dose once at 0.3 μg/kg (100 μL) on Day-0 at 14-day post OVX, and terminated at Day-7 after dosing. Groups 12 (N=6): F-2-H; dose once at 3.0 μg/kg (100 μL) on Day-0 at 14-day post OVX, and terminated at Day-7 after dosing. Groups 13 (N=6): F-1-L; dose twice at respectively 0.3 μg/kg (100 μL) on Day-0 and Day-4 at 14-day and 18-day post OVX, and terminated at Day-7 after dosing. Groups 14 (N=6): F-1-H; dose twice at respectively 3.0 μg/kg (100 μL) on Day-0 and Day-4 at 14-day and 18-day post OVX, and terminated at Day-7 after dosing. Groups 15 (N=6): F-2-L; dose twice at respectively 0.3 μg/kg (100 μL) on Day-0 and Day-4 at 14-day and 18-day post OVX, and terminated at Day-7 after dosing. Groups 16 (N=6): F-2-H; dose twice at respectively 3.0 μg/kg (100 μL) on Day-0 and Day-4 at 14-day and 18-day post OVX, and terminated at Day-7 after dosing. Body Weight
(§4) All animals were humanely sacrificed by CO2 and the vaginal and uterine wet-weight were collected from each, and about 0.5 mL blood were collected for analysis of serum cholesterol level. Each uterus and vagina was weighed separately and was placed in 10% NBF for at least 48 hours before being sent to Histology Laboratory for tissue processing. The paraffin blocks of these tissues were sectioned, about 4-8 μm in thickness, and one section were stained with H & E for general microscopic evaluation, and one section were stained with PAS for assessment of mucification of the epithelium.
The PAS stained sections were used to evaluate the amount of mucification by visual approximation on a 0-4 scale, with the 4 stands for the highest amount.
Data were analyzed using GraphPad Prism software (GraphPad Software, Inc., La Jolla, Calif., USA) and are expressed as the mean±SD. […]

The subject of data set [4] is vaginal epithelium. Put plainly: Ovariectomized rat dosing frequency study: thickness of the vaginal epithelium (H & E histomorphometry). Type of data set: in vivo. Further details: unit not given here. The note with it: individual animals.
Description: as §1, §2, §3, §4
The H & E stained sections were used to measure the height of the vaginal epithelium at minimum of ten (10) sites per slide. Photomicrographs of the slides were included in the appendix or burned on a DVD disc to accompany the final report. […]

Data set [5] has as its system Uterine. Put plainly: Ovariectomized rat dosing frequency study: mucification, Uterine (0-4 scale). Type of data set: in vivo. The note with it: individual animals.
Data set [6] concerns Uterine. Put plainly: Ovariectomized rat dosing frequency study: epithelium thickness, Uterine. Format: in vivo. More on the design: unit not given here. The note with it: individual animals.

Turning to `OCC(O)CO` [Glycerol 99%, Glycerol], in data set [1] (visual examination), the “Dissolution of Lasofoxifene in various organic solvents and surfactants, 2 mg/ml” value (“Dissolution of Lasofoxifene … 2 mg/ml” below) is reported as “partially”; the “Dissolution of Lasofoxifene in various organic solvents and surfactants, 3 mg/ml” value (shortened to “Dissolution of Lasofoxifene … 3 mg/ml”) is on record as “not dissolved”. Moreover, the “Dissolution of Lasofoxifene in various organic solvents and surfactants, 1 mg/ml” value (“Dissolution of Lasofoxifene … 1 mg/ml” for short) in data set [2] is listed as “dissolved*”.
Take `CCOC(=O)CC(O)(CC(=O)OCC)C(=O)OCC` [Triethyl citrate (TEC), Triethyl citrate]: in data set [2], the “Dissolution of Lasofoxifene … 1 mg/ml” value is given as “not dissolved”.
As for `CCOCCOCCO` [Transcutol (TC), Diethylene glycol monoethyl ether], in data set [1] (visual examination), the “Dissolution of Lasofoxifene … 2 mg/ml” value was “dissolved”; the “Dissolution of Lasofoxifene … 3 mg/ml” value is recorded as “dissolved”. Moreover, in data set [2], the “Dissolution of Lasofoxifene … 1 mg/ml” value is listed as “dissolved”.
Regarding `CCOC(=O)CC(CC(=O)OCC)(OC(C)=O)C(=O)OCC` [Triethyl acetyl citrate (TEAC), Triethyl acetyl citrate], the “Dissolution of Lasofoxifene … 1 mg/ml” value in data set [2] is reported as “not dissolved”.
For the molecule `CC(O)CO` (centres unmarked) [Propylene glycol (PG), Propylene glycol], in data set [1] (visual examination), the “Dissolution of Lasofoxifene … 2 mg/ml” value was “dissolved*”; the “Dissolution of Lasofoxifene … 3 mg/ml” value is recorded as “partially”. Also, the “Dissolution of Lasofoxifene in various organic solvents and surfactants, 6 mg/ml” value in data set [1] (Lasofoxifene 6 mg/ml in the labelled solvent/surfactant, visual examination) is recorded as “not dissolved”. For the same molecule, in data set [2], the “Dissolution of Lasofoxifene … 1 mg/ml” value is recorded as “dissolved”.
Regarding `OCC(O)CO` [Glycerol 85%, Glycerol], in data set [1] (visual examination), the “Dissolution of Lasofoxifene … 2 mg/ml” value is reported as “partially”; the “Dissolution of Lasofoxifene … 3 mg/ml” value is recorded as “not dissolved”. Also, the “Dissolution of Lasofoxifene … 1 mg/ml” value in data set [2] is on record as “dissolved”.
As for `CCCCOC(=O)CC(O)(CC(=O)OCCCC)C(=O)OCCCC` [Tributyl citrate (TBC), Tributyl citrate], the “Dissolution of Lasofoxifene in more lipophilic excipients” value in data set [1] (in the labelled excipient) is reported as “could not be dissolved”. Moreover, the “Dissolution of Lasofoxifene … 1 mg/ml” value in data set [2] was “not dissolved”.
Turning to `CCCCCCCC/C=C\CCCCCCCC(=O)OCC` [Ethyloleate], the “Dissolution of Lasofoxifene … 1 mg/ml” value in data set [2] is “not dissolved”.
The same measure, in the same setting: then `CCCCOC(=O)CC(CC(=O)OCCCC)(OC(C)=O)C(=O)OCCCC` [Tributyl acetyl citrate (TBAC), Tributyl acetyl citrate], with “not dissolved”.
Regarding `Oc1ccc2c(c1)CC[C@H](c1ccccc1)[C@@H]2c1ccc(OCCN2CCCC2)cc1` [Lasofoxifene], the “Mucification of vaginal epithelium, Vagina” value (“Mucification … Vagina” below) in the data set with vaginal epithelium [3] (group G3) was 2 (4×) and 3 (2×); in the data set with vaginal epithelium [3] (group G5), 3 and 1 (3×) and 2 (2×); in the data set with vaginal epithelium [3] (group G6) it was 2 (2×) and 1 (4×); in the data set on vaginal epithelium [3] (group G7) it was 1 (2×) and 2 (4×); in the data set with vaginal epithelium [3] (group G8) it was 2 (2×) and 1 (3×) and 3; with vaginal epithelium [3] (group G9) it was 3 (3×) and 1 and 2 (2×). The “Mucification … Vagina” value with vaginal epithelium [3] (group G10) is 3 (3×) and 2 (3×); with vaginal epithelium [3] (group G11) it was 3 (2×) and 4 and 1 and 2 (2×); in the data set with vaginal epithelium [3] (group G12) it was 3 (4×) and 2 and 4; with vaginal epithelium [3] (group G13), 4 (4×) and 3 (2×); in the data set on vaginal epithelium [3] (group G14), 4 (3×) and 3 (3×); in the data set on vaginal epithelium [3] (group G15) it was 2 (2×) and 3 (4×). The “Mucification … Vagina” value in the data set with vaginal epithelium [3] (group G16) is 4 and 3 (4×) and 2. Also, the “Thickness of the vaginal epithelium, Vagina” value (shortened to “Thickness … Vagina”) is 23 (2×) and 22 and 21 and 15 and 18 in the data set on vaginal epithelium [4] (group G3); 26 and 30 and 32 (2×) and 27 and 16 in the data set with vaginal epithelium [4] (group G5); 29 (2×) and 24 and 41 and 27 and 22 with vaginal epithelium [4] (group G6); 27 and 18 and 21 and 20 (2×) and 17 with vaginal epithelium [4] (group G7); 32 (2×) and 24 and 28 and 14 and 26 in the data set with vaginal epithelium [4] (group G8); 21 and 15 (2×) and 25 and 17 and 18 with vaginal epithelium [4] (group G9). For the same molecule, the “Thickness … Vagina” value was 27 and 19 and 17 (2×) and 14 and 22 in the data set on vaginal epithelium [4] (group G10); 17 (2×) and 20 and 15 and 25 and 19 in the data set on vaginal epithelium [4] (group G11); 16 and 21 and 17 and 18 and 20 and 19 with vaginal epithelium [4] (group G12); 20 (3×) and 18 and 23 and 19 in the data set with vaginal epithelium [4] (group G13); 15 and 23 and 13 and 16 and 18 and 25 with vaginal epithelium [4] (group G14); 21 and 22 and 23 (3×) and 25 in the data set on vaginal epithelium [4] (group G15). Moreover, in the data set on vaginal epithelium [4] (group G16), the “Thickness … Vagina” value is 22 and 28 and 20 and 19 (2×) and 16. Further, the “Mucification, Uterine” value in the data set with Uterine [5] (group G3), in the data set on Uterine [5] (group G5), in the data set on Uterine [5] (group G6), in the data set on Uterine [5] (group G7), with Uterine [5] (group G8) and with Uterine [5] (group G9) was 0 throughout. Also, the “Mucification, Uterine” value with Uterine [5] (group G10), in the data set with Uterine [5] (group G11), in the data set with Uterine [5] (group G12), in the data set on Uterine [5] (group G13), with Uterine [5] (group G14) and with Uterine [5] (group G15) was 0 throughout. Moreover, the “Mucification, Uterine” value in the data set with Uterine [5] (group G16) is 0. Also, the “Thickness, Uterine” value with Uterine [6] (group G3) is 6 and 7 (3×) and 8 (2×); in the data set with Uterine [6] (group G5), 9 (4×) and 8 (2×); in the data set on Uterine [6] (group G6) it was 8 (3×) and 9 and 6 (2×); in the data set with Uterine [6] (group G7), 8 (3×) and 7 (2×) and 9; in the data set on Uterine [6] (group G8), 6 and 8 (2×) and 10 (2×) and 7; in the data set with Uterine [6] (group G9), 7 (2×) and 9 (2×) and 6 (2×). Further, the “Thickness, Uterine” value with Uterine [6] (group G10) is 9 (3×) and 8 (2×) and 11; in the data set with Uterine [6] (group G11) it was 5 and 7 (4×) and 9; in the data set on Uterine [6] (group G12), 9 and 7 (3×) and 6 and 8; in the data set on Uterine [6] (group G13), 6 (2×) and 7 and 8 (2×) and 9; with Uterine [6] (group G14), 8 (3×) and 6 and 7 and 9; in the data set with Uterine [6] (group G15), 9 and 8 (5×). Moreover, the “Thickness, Uterine” value in the data set with Uterine [6] (group G16) is 6 (2×) and 7 (3×) and 8.
